Key:
[1] = species on record: Cavia porcellus; experiment: Antagonistic activity with Bradykinin as agonist in ileum tissue of guinea pig smooth muscles.; type: functional
[2] = species on record: Cavia porcellus; experiment: pA2 value on guinea pig parenchyma tissue in presence of LTE4 as agonist; type: functional; conditions: read-out: pA2 (converted)
[3] = species on record: Cavia porcellus; experiment: Antagonistic activity with U-46,619 as agonist in trachea tissue of guinea pig smooth muscles.; type: functional, Muscle tissue
[4] = species on record: Cavia porcellus; experiment: Antagonistic activity with LTD4 as agonist in parenchyma tissue of guinea pig smooth muscles.; type: functional, Muscle tissue
[5] = species on record: Cavia porcellus; experiment: Antagonistic activity with LTE4 as agonist in ileum tissue of guinea pig smooth muscles.; type: functional
[6] = species on record: Cavia porcellus; experiment: Antagonistic activity with LTE4 as agonist in parenchyma tissue of guinea pig smooth muscles.; type: functional, Muscle tissue
[7] = species on record: Cavia porcellus; experiment: Antagonistic activity with Carbamylcholine as agonist in trachea tissue of guinea pig smooth muscles.; type: functional, Muscle tissue
[8] = species on record: Cavia porcellus; experiment: Antagonistic activity with LTD4 as agonist in ileum tissue of guinea pig smooth muscles.; type: functional
[9] = species on record: Cavia porcellus; experiment: Antagonistic activity with LTC4 as agonist in ileum tissue of guinea pig smooth muscles.; type: functional
[10] = species on record: Cavia porcellus; experiment: Antagonistic activity with LTE4 as agonist in trachea tissue of guinea pig smooth muscles.; type: functional, Muscle tissue
[11] = species on record: Cavia porcellus; experiment: pA2 value on guinea pig ileum tissue in presence of LTE4 as agonist; type: functional; conditions: read-out: pA2 (converted)
[12] = species on record: Cavia porcellus; experiment: pA2 value on guinea pig trachea tissue in presence of LTE4 as agonist; type: functional; conditions: read-out: pA2 (converted)
[13] = species on record: Cavia porcellus; experiment: pA2 value on guinea pig parenchyma tissue in presence of LTD4 as agonist; type: functional; conditions: read-out: pA2 (converted)
[14] = species on record: Cavia porcellus; experiment: Antagonistic activity with LTD4 as agonist in trachea tissue of guinea pig smooth muscles.; type: functional, Muscle tissue
[15] = species on record: Cavia porcellus; experiment: Antagonistic activity with Histamin as agonist in ileum tissue of guinea pig smooth muscles.; type: functional
[16] = species on record: Cavia porcellus; experiment: Antagonistic activity with LTC4 as agonist in trachea tissue of guinea pig smooth muscles.; type: functional, Muscle tissue
[17] = species on record: Cavia porcellus; experiment: pA2 value on guinea pig trachea tissue in presence of LTD4 as agonist; type: functional; conditions: read-out: pA2 (converted)
[18] = species on record: Cavia porcellus; experiment: pA2 value on guinea pig ileum tissue in presence of LTD4 as agonist; type: functional; conditions: read-out: pA2 (converted)

SMILES | pKB [1] | Kb [2] | pKB [3] | pKB [4] | pKB [5] | pKB [6] | pKB [7] | pKB [8] | pKB [9] | pKB [10] | Kb [11] | Kb [12] | Kb [13] | pKB [14] | pKB [15] | pKB [16] | Kb [17] | Kb [18]
CCc1c(COc2ccc(C(=O)CC(C)(C)CC(=O)[O-])cc2)ccc(C(C)=O)c1O.[Na+] | <5 | 36.3 nM | <5 | 6.74 | 7.73 | 7.13 | <5 | 7.46 | <5 | 7.09 | 9.77 nM | 63.1 nM | 138 nM | 6.52 | <5 | <5 |  | 
CCCc1c(COc2ccc(Cc3nnn(CCCc4nnn[n-]4)n3)cc2)ccc(C(C)=O)c1O.[Na+] |  |  |  |  | 8.37 |  |  | 7.84 | 5.39 | 7.57 | 3.63 nM | 26.9 nM |  | 6.69 | <5 | 5.67 | 204 nM | 12 nM

Reference: ChEMBL document CHEMBL1125935, “(Phenylmethoxy)phenyl derivatives of omega-oxo- and omega-tetrazolylalkanoic acids and related tetrazoles. Synthesis and evaluation as leukotriene D4 receptor antagonists” (J Med Chem, 1991)
